Assays:
Format in all cases: in vivo, rat
male Wistar rats [1] = test: Example 44 single oral dose study: water consumption
Method: (§1) Sample 1 to 3 were each administered as a single oral dose to male Wistar rats. Two additional control groups received vehicle (distilled water or DMSO). Orally administered fenfluramine (7.5 mg/kg) was included as a reference standard.
(§2) Fifty-five male Wistar rats were used for the study.
(§3) Bodyweights, food consumption (food hopper weight) and water consumption (bottle weight) were recorded daily at the same time each day from the day of arrival until the termination of the study.
(§4) On Day 1, the rats received a single oral (gavage) dose according to the following table:
(§5) Groups 1–8 were dosed using a constant dose volume of 10 ml/kg and groups 9–12 were dosed using a dose volume of 1 ml/kg.
(§6) Food and water consumption were also measured at […] after dosing on Day 1.
(§7) The post-dose food and water consumption measurements and bodyweights at each time-point for the P57-treated animals were compared with those for the relevant, similarly-treated vehicle control group using analysis of variance followed by Williams' test for comparisons with controls.
(§8) The data for the fenfluramine-treated animals was compared with that for the vehicle-treated control group using Student's t test.

male Wistar rats [2] = test: Example 44 single oral dose study: liver histopathology
Text: Following the measurements of Day 8, the animals were killed by carbon dioxide asphyxiation, and the livers excised and placed in 10% buffered formalin, prior to histology.
Paraffin wax sections of each liver were taken at 4–5 μm and stained with haematoxylin and eosin. Additional sections were cut on a cryostat at 12 μm and stained for fat with Oil Red O (ORO).
Histological examination was restricted to the liver.

male Wistar rats [3] = test: Example 44 single oral dose study: food consumption
Method: as §1, §2, §3, §4, §5, §6, §7, §8

[4] = Example 44 single oral dose study: bodyweight
Method: as §1, §2, §3, §4, §5, §7, §8

[5] = pre-dose data, before treatment, table rows = later dose groups
[6] = Group 11, 7.5 mg/kg, 3 examined
[7] = 7.5 mg/kg single oral dose on Day 1

With CCNC(C)Cc1cccc(C(F)(F)F)c1 (centres unmarked) [Fenfluramine, reference compound] the “Group mean water consumption (g ± sd) between Days: 1–2” value (male Wistar rats [1]; 7.5 mg/kg single oral dose) was 34.1 ± 3.60 g, the “Group mean water consumption (g ± sd) between Days: 2–3” value (male Wistar rats [1]; 7.5 mg/kg single oral dose) was 37.2 ± 1.48 g and the “Group mean water consumption (g ± sd) between Days: 3–4” value (male Wistar rats [1]; 7.5 mg/kg single oral dose) was 36.7 ± 3.92 g. For the same compound, the “Group mean water consumption (g ± sd) between Days: 4–5” value (male Wistar rats [1]; 7.5 mg/kg single oral dose) was 33.8 ± 2.89 g, the “Group mean water consumption (g ± sd) between Days: 5–6” value (male Wistar rats [1]; 7.5 mg/kg single oral dose) was 33.7 ± 5.43 g and the “Group mean water consumption (g ± sd) between Days: 6–7” value (male Wistar rats [1]; 7.5 mg/kg single oral dose) was 32.1 ± 1.93 g. The “Group mean water consumption (g ± sd) between Days: 7–8” value (male Wistar rats [1]; 7.5 mg/kg single oral dose) was 33.6 ± 2.50 g, the “effects on water consumption” value (male Wistar rats [1]; 7.5 mg/kg single oral dose) was “No statistically significant effects” and the “Group mean water consumption (g ± sd) between Days: −2–−1” value (male Wistar rats [1]; [5]) was 31.6 ± 2.80 g. The “Group mean water consumption (g ± sd) between Days: −3–−2” value (male Wistar rats [1]; [5]) was 30.9 ± 2.12 g, the “Group mean water consumption (g ± sd) between Days: −4–−3” value (male Wistar rats [1]; [5]) was 34.7 ± 3.73 g and the “Group mean water consumption (g ± sd) between Days: −5–−4” value (male Wistar rats [1]; [5]) was 35.5 ± 7.49 g. For the same compound, the “Group mean water consumption (g ± sd) between Days: −6–−5” value (male Wistar rats [1]; [5]) was 47.0 ± 5.3 g, the “Liver (ORO stain): Hepatocyte fat - centrilobular(Total)” value (male Wistar rats [2]; [6]) was 1 and the “Liver (ORO stain): Hepatocyte fat - centrilobular, Minimal” value (male Wistar rats [2]; [6]) was 1. The “Liver (ORO stain): No abnormalities detected” value (male Wistar rats [2]; [6]) was 2, the “Liver: Hepatocyte necrosis - focal (Total)” value (male Wistar rats [2]; [6]) was 0 and the “Liver: Hepatocyte necrosis - focal, Minimal” value (male Wistar rats [2]; [6]) was 0. For the same compound, the “Liver: No abnormalities detected (incidence)” value (male Wistar rats [2]; [6]) was 0, the “Liver: Parenchymal inflammatory cell foci (Total)” value (male Wistar rats [2]; [6]) was 0 and the “Liver: Parenchymal inflammatory cell foci, Minimal” value (male Wistar rats [2]; [6]) was 0. For the same compound, the “Liver: Portal leucocytes (Total)” value (male Wistar rats [2]; [6]) was 0, the “Liver: Portal leucocytes, Minimal” value (male Wistar rats [2]; [6]) was 0 and the “Liver: Portal lymphoid infiltration (Total)” value (male Wistar rats [2]; [6]) was 3. The “Liver: Portal lymphoid infiltration, Minimal” value (male Wistar rats [2]; [6]) was 3, the “histological examination of the liver” value (male Wistar rats [2]; all doses tested, single oral dose, livers taken Day 8) was “No treatment-related changes were detected” and the “Group mean food consumption (g ± sd) between Days: 1–2” value (male Wistar rats [3]; 7.5 mg/kg single oral dose) was 22.4 ± 3.19 g. The “Group mean food consumption (g ± sd) between Days: 2–3” value (male Wistar rats [3]; 7.5 mg/kg single oral dose) was 31.9 ± 0.84 g, the “Group mean food consumption (g ± sd) between Days: 3–4” value (male Wistar rats [3]; 7.5 mg/kg single oral dose) was 32.7 ± 2.50 g and the “Group mean food consumption (g ± sd) between Days: 4–5” value (male Wistar rats [3]; 7.5 mg/kg single oral dose) was 33.0 ± 2.55 g. For the same compound, the “Group mean food consumption (g ± sd) between Days: 5–6” value (male Wistar rats [3]; 7.5 mg/kg single oral dose) was 30.4 ± 0.23 g, the “Group mean food consumption (g ± sd) between Days: 6–7” value (male Wistar rats [3]; 7.5 mg/kg single oral dose) was 32.7 ± 1.90 g and the “Group mean food consumption (g ± sd) between Days: 7–8” value (male Wistar rats [3]; 7.5 mg/kg single oral dose) was 32.4 ± 1.60 g. For the same compound, the “food consumption at 6 and 24 hours post-dose versus vehicle-treated control group” value (male Wistar rats [3]; 7.5 mg/kg single oral dose) was “statistically significant reductions in food consumption”, the “Group mean food consumption (g ± sd) between Days: −2–−1” value (male Wistar rats [3]; [5]) was 29.7 ± 2.84 g and the “Group mean food consumption (g ± sd) between Days: −3–−2” value (male Wistar rats [3]; [5]) was 30.8 ± 0.54 g. For the same compound, the “Group mean food consumption (g ± sd) between Days: −4–−3” value (male Wistar rats [3]; [5]) was 27.0 ± 1.53 g, the “Group mean food consumption (g ± sd) between Days: −5–−4” value (male Wistar rats [3]; [5]) was 25.3 ± 4.03 g and the “Group mean food consumption (g ± sd) between Days: −6–−5” value (male Wistar rats [3]; [5]) was 29.1 ± 0.66 g. The effects on bodyweight ([4]; 7.5 mg/kg single oral dose) was “No statistically significant effects”, the “Group mean bodyweight (g ± sd) on Day: 2” value [4, 7] was 190.3 ± 10.97 g and the “Group mean bodyweight (g ± sd) on Day: 3” value [4, 7] was 197.7 ± 7.37 g. For the same compound, the “Group mean bodyweight (g ± sd) on Day: 4” value [4, 7] was 207.7 ± 7.23 g, the “Group mean bodyweight (g ± sd) on Day: 5” value [4, 7] was 217.7 ± 10.69 g and the “Group mean bodyweight (g ± sd) on Day: 6” value [4, 7] was 224.3 ± 10.12 g. For the same compound, the “Group mean bodyweight (g ± sd) on Day: 7” value [4, 7] was 234.3 ± 12.70 g, the “Group mean bodyweight (g ± sd) on Day: 8” value [4, 7] was 243.3 ± 9.24 g and the “Group mean bodyweight (g ± sd) on Day: Pre-dose (1)” value ([4]; Day 1 before dosing) was 190.3 ± 9.71 g. The “Group mean bodyweight (g ± sd) on Day: −1” value [4, 5] was 182.8 ± 10.21 g, the “Group mean bodyweight (g ± sd) on Day: −2” value [4, 5] was 170.0 ± 9.15 g and the “Group mean bodyweight (g ± sd) on Day: −3” value [4, 5] was 160.0 ± 9.82 g. The “Group mean bodyweight (g ± sd) on Day: −4” value [4, 5] was 152.7 ± 9.09 g and the “Group mean bodyweight (g ± sd) on Day: −5” value [4, 5] was 133.2 ± 9.21 g.
